Results published in paper PMC6199744, “Development of Chemical Proteomics for the Folateome and Analysis of the Kinetoplastid Folateome” (ACS Infectious Diseases, 2018).
Read-outs that look alike come from different tables or passages of the source.

Assays:
Type in all cases: binding
[1] = target: T1, HeLa cell extract proteins (Homo sapiens, UniProt O00299)
T1 construct: endogenous in cells; host or cells: HeLa cell extract

[2] = target: T2, HeLa cell extract proteins (Homo sapiens, UniProt P00966)
T2 construct: endogenous in cells; host or cells: HeLa cell extract
T2 sequence (P00966 1-412): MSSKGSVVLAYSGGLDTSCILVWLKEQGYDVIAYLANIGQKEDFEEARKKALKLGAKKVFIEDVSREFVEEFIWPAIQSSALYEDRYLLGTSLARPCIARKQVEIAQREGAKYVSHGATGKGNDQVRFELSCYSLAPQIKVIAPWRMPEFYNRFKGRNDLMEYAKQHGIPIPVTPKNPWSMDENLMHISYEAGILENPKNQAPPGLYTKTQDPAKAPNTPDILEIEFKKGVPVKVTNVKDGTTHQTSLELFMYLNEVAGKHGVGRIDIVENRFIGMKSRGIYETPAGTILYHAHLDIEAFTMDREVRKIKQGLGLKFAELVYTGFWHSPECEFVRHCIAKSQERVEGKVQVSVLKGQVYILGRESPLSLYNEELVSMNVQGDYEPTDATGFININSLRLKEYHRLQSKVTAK

[3] = target: T3, HeLa cell extract proteins (Homo sapiens, UniProt P11142)
T3 construct: endogenous in cells; host or cells: HeLa cell extract

[4] = target: T4, HeLa cell extract proteins (Homo sapiens, UniProt P17858)
T4 construct: endogenous in cells; host or cells: HeLa cell extract
T4 sequence (P17858 1-780): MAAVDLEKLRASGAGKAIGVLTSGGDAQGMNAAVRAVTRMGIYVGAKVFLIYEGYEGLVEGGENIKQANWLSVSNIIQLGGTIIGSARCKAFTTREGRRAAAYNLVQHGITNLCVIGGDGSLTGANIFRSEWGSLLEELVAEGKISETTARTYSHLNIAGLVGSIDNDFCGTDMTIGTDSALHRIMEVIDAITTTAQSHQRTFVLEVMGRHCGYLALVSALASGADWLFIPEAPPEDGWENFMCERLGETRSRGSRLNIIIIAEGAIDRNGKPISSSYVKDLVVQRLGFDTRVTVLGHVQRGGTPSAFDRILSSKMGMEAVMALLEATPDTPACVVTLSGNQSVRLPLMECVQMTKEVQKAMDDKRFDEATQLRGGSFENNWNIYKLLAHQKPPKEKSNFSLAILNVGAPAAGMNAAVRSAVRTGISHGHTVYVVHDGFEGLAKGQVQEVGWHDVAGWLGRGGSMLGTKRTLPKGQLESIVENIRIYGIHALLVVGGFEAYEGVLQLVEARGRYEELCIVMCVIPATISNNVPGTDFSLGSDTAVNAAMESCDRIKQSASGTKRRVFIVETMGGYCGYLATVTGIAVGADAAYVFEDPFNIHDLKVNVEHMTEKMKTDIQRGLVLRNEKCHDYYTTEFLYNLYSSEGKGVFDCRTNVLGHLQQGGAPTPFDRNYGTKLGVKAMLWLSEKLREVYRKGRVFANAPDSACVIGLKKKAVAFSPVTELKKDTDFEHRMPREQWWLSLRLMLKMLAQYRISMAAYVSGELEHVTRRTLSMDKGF

[5] = target: T5, HeLa cell extract proteins (Homo sapiens, UniProt P23396)
T5 construct: endogenous in cells; host or cells: HeLa cell extract

[6] = target: T6, HeLa cell extract proteins (Homo sapiens, UniProt P31948)
T6 construct: endogenous in cells; host or cells: HeLa cell extract

[7] = target: T7, HeLa cell extract proteins (Homo sapiens, UniProt P35080)
T7 construct: endogenous in cells; host or cells: HeLa cell extract
T7 sequence (P35080 1-140): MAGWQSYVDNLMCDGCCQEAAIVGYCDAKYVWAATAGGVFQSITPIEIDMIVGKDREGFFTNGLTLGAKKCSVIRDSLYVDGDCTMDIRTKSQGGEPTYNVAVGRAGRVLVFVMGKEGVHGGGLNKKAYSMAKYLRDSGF

[8] = target: T8, HeLa cell extract proteins (Homo sapiens, UniProt P43686)
T8 construct: endogenous in cells; host or cells: HeLa cell extract

[9] = target: T9, HeLa cell extract proteins (Homo sapiens, UniProt P52948)
T9 construct: endogenous in cells; host or cells: HeLa cell extract

[10] = target: T10, HeLa cell extract proteins (Homo sapiens, UniProt P62191)
T10 construct: endogenous in cells; host or cells: HeLa cell extract

[11] = target: T11, HeLa cell extract proteins (Homo sapiens, UniProt Q13347)
T11 construct: endogenous in cells; host or cells: HeLa cell extract

[12] = target: T12, HeLa cell extract proteins (Homo sapiens, UniProt Q8WWC4)
T12 construct: endogenous in cells; host or cells: HeLa cell extract
T12 sequence (Q8WWC4 97-291): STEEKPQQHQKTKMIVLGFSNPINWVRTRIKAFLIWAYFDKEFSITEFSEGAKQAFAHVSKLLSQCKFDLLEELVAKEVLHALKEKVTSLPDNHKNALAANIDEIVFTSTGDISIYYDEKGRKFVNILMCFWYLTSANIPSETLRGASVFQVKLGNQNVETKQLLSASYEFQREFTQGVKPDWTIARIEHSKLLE

[13] = target: T13, HeLa cell extract proteins (Homo sapiens, UniProt Q9NUI1)
T13 construct: endogenous in cells; host or cells: HeLa cell extract
T13 sequence (Q9NUI1 1-292): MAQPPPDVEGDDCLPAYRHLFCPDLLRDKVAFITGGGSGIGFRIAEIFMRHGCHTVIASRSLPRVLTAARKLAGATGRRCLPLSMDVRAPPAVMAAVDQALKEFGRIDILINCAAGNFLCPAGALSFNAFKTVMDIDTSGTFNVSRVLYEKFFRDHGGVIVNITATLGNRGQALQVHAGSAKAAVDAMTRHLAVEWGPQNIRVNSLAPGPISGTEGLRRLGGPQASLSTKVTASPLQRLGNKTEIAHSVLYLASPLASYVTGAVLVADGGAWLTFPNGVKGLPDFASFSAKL

[14] = target: T14, HeLa cell extract proteins (Homo sapiens, UniProt Q9Y230)
T14 construct: endogenous in cells; host or cells: HeLa cell extract

[15] = HeLa, protein ASS1 (ARGININOSUCCINATE SYNTHASE.)

T10 sequence (P62191 whole entry): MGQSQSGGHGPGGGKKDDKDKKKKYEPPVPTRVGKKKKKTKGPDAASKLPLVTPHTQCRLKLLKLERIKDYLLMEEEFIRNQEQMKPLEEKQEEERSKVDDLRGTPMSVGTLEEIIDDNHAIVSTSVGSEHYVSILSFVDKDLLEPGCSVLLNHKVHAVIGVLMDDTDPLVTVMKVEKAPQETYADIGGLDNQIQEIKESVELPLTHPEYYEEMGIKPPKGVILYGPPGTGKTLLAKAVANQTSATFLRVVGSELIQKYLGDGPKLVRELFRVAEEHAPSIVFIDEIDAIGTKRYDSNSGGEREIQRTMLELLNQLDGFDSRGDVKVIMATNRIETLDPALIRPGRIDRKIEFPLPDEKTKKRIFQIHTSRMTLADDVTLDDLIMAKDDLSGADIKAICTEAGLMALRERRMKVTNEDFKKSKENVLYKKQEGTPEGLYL
T3 sequence (P11142 whole entry): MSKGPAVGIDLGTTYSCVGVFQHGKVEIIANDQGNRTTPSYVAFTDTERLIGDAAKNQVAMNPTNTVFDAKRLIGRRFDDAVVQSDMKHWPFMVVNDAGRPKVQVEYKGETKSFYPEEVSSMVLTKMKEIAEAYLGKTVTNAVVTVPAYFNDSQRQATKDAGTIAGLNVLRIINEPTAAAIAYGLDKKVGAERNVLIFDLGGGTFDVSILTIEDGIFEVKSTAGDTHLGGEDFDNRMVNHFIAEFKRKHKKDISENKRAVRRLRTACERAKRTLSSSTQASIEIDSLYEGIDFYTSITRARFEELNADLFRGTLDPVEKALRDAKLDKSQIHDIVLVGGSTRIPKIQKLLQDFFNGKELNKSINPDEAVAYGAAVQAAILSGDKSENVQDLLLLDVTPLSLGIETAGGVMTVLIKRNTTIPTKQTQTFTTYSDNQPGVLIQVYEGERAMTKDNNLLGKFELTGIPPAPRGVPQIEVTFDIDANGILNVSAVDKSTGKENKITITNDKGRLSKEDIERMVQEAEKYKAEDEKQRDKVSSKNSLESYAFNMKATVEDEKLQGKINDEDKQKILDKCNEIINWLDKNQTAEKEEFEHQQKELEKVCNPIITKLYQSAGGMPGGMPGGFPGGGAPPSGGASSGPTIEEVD
T11 sequence (Q13347 whole entry): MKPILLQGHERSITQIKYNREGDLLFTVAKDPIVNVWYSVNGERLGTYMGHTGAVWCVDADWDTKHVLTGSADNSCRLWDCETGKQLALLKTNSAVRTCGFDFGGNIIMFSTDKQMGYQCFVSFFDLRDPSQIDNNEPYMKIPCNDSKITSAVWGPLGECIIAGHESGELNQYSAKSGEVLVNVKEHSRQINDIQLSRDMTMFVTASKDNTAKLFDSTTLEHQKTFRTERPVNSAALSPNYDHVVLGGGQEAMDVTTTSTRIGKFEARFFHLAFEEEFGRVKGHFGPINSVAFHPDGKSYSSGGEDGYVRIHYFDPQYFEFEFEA
T6 sequence (P31948 whole entry): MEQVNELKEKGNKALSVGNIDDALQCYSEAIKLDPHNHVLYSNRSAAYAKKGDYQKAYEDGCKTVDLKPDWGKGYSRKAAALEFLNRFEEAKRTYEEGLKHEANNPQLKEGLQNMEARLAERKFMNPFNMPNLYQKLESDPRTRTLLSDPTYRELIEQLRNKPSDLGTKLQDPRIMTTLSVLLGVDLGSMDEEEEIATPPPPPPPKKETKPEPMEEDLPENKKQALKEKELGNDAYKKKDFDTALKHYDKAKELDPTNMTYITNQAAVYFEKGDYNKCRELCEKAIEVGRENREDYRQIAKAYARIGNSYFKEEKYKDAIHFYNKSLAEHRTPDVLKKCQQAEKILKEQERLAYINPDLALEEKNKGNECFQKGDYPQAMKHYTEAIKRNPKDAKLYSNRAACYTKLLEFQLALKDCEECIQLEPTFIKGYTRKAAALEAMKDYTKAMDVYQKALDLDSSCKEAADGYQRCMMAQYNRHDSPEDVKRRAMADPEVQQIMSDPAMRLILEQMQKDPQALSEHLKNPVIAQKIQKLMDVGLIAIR
T8 sequence (P43686 whole entry): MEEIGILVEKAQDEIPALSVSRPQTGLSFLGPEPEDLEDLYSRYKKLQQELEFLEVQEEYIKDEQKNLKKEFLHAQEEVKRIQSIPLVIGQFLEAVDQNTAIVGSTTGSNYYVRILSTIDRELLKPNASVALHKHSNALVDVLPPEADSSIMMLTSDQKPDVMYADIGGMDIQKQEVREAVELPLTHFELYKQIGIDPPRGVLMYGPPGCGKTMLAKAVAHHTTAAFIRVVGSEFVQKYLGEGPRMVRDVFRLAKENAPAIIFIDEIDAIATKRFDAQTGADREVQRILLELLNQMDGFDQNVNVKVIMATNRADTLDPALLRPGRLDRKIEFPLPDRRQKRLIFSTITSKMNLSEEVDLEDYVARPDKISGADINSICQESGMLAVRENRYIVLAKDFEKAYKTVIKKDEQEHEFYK
T14 sequence (Q9Y230 whole entry): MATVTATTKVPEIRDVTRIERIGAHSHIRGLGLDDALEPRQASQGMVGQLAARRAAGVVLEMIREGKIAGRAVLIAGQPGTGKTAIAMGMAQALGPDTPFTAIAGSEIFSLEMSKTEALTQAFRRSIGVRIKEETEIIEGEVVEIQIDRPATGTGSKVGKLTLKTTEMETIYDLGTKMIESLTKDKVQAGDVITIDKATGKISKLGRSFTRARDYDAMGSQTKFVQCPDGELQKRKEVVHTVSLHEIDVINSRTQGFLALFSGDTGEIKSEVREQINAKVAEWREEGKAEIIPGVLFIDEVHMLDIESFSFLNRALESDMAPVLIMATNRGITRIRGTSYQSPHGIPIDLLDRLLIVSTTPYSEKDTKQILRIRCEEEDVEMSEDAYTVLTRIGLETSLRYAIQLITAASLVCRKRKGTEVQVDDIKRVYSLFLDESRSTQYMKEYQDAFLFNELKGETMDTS
T9 sequence (P52948 whole entry): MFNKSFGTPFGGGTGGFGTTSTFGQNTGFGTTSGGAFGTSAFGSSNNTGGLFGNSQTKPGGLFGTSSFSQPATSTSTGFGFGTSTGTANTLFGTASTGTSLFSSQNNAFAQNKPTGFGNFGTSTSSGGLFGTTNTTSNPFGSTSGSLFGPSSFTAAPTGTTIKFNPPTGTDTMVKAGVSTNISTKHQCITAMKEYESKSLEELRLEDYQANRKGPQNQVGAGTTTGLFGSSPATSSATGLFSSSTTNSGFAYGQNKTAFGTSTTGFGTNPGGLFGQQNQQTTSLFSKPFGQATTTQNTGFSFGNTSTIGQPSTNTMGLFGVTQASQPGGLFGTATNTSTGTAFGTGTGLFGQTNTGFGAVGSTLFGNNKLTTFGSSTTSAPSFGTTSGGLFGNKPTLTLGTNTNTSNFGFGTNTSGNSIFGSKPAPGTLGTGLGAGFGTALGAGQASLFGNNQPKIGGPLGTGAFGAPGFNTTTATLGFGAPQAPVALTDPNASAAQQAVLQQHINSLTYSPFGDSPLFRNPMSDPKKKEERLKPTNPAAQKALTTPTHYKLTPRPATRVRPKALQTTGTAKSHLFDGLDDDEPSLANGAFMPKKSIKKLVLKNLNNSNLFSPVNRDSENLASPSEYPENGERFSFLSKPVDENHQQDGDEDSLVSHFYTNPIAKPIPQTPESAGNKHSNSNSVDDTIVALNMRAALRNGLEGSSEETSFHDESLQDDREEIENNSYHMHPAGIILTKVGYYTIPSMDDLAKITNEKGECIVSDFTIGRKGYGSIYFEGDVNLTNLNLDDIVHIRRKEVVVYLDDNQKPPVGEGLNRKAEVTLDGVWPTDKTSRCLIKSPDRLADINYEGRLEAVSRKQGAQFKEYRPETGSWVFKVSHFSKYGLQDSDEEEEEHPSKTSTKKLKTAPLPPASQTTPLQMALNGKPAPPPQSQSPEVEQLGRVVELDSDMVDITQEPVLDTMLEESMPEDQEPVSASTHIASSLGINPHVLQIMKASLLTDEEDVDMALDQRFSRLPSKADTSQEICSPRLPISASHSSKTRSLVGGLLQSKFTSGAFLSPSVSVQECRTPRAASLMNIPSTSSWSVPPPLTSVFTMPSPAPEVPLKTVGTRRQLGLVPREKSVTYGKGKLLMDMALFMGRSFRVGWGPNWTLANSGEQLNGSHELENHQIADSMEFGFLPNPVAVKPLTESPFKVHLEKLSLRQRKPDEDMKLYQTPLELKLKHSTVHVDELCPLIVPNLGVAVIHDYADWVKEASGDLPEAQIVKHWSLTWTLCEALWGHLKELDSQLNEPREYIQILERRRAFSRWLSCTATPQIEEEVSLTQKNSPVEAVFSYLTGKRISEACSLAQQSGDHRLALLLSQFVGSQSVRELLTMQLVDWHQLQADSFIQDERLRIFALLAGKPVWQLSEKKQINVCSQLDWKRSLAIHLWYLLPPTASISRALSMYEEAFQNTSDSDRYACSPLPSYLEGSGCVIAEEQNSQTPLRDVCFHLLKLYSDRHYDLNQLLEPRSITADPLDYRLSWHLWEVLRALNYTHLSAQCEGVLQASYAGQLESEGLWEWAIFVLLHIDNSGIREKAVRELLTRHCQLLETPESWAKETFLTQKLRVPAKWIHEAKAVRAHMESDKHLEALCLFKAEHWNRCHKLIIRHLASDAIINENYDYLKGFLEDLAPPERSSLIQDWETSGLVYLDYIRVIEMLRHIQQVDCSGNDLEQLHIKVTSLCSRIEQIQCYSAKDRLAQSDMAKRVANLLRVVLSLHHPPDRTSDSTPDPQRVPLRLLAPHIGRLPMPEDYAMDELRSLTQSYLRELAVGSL

SMILES	fold changes relative to vehicle control ([1]; protein CLIC1, HeLa)	fold changes relative to vehicle control ([3]; protein HSPA8, HeLa)	fold changes relative to vehicle control ([4]; captured protein PFKL, HeLa)	fold changes relative to vehicle control ([5]; captured protein RPS3, HeLa)	fold changes relative to vehicle control ([6]; protein STIP1, HeLa)	fold changes relative to vehicle control ([7]; protein PFN2, HeLa)	fold changes relative to vehicle control ([8]; protein PSMC4, HeLa)	fold changes relative to vehicle control ([9]; captured protein NUP98, HeLa)	fold changes relative to vehicle control ([10]; protein PSMC1, HeLa)	fold changes relative to vehicle control ([11]; protein EIF3I, HeLa)	fold changes relative to vehicle control ([12]; HeLa, protein C2ORF47)	fold changes relative to vehicle control ([13]; HeLa, protein DECR2)	fold changes relative to vehicle control ([14]; protein RUVBL2, HeLa)	fold changes relative to vehicle control ([1]; HeLa, protein CLIC1)	fold changes relative to vehicle control ([2]; HeLa, protein ASS1)	fold changes relative to vehicle control ([3]; HeLa, captured protein HSPA8)	fold changes relative to vehicle control ([4]; HeLa, protein PFKL)	fold changes relative to vehicle control ([5]; HeLa, captured protein RPS3)	fold changes relative to vehicle control ([7]; HeLa, protein PFN2)	fold changes relative to vehicle control ([9]; HeLa, protein NUP98)	also measured
Nc1nc2cccc(-c3ccccc3)c2n1Cc1ccc(Cl)c(Cl)c1 [compound 3]	0.87	1	1.07	1.03	0.87	1.1	1.04	1.06	1	1.02	1.11	0.99	1.02								fold changes relative to vehicle control ([2]; HeLa, protein ASS1 (ARGININ[…].)): 0.97 fold
Nc1nc2[nH]cc(CCc3ccc(C(=O)N[C@@H](CCC(=O)O)C(=O)O)cc3)c2c(=O)[nH]1 [PTX, pemetrexed]																					fold changes relative to vehicle control [1]: 1.26; fold changes relative to vehicle control [2]: 1.23; fold changes relative to vehicle control [3]: 0.99; fold changes relative to vehicle control [4]: 0.89; fold changes relative to vehicle control [5]: 1.18; fold changes relative to vehicle control [6]: 1.01; fold changes relative to vehicle control [7]: 1.01; fold changes relative to vehicle control [8]: 1.01; fold changes relative to vehicle control [9]: 1; fold changes relative to vehicle control [10]: 0.92; fold changes relative to vehicle control [11]: 1.06; fold changes relative to vehicle control [12]: 0.92; fold changes relative to vehicle control [13]: 0.89; fold changes relative to vehicle control [14]: 0.87
Nc1nc2c(c(=O)[nH]1)N(C=O)C(CNc1ccc(C(=O)N[C@@H](CCC(=O)O)C(=O)O)cc1)CN2 (some centres unmarked) [LEU, leucovorin]					0.97		0.97					1.02	0.85	1.09	1.03	1.07	0.96	1.08	1.07	0.93	fold changes relative to vehicle control ([10]; HeLa, protein PSMC1): 1; fold changes relative to vehicle control ([11]; HeLa, captured protein EIF3I): 1.06; fold changes relative to vehicle control ([12]; protein C2ORF47, HeLa): 0.93
CCCCCCOc1cccc(Cc2cnc(N)nc2N)c1 [compound 2]	2.13	1.11	0.96	1.16	1.49	0.99	1.33	1.11	1.42	0.91	1.06	1.05	1.34								fold changes relative to vehicle control [2, 15]: 2.2 fold
NCCOCCOCC(=O)Nc1nc2ncc(CNc3ccc(C(=O)NC(CCC(=O)O)C(=O)O)cc3)nc2c(=O)[nH]1 (centres unmarked) [compound 6]					1.13		1.13					0.94	1.06	1.44	1.43	0.98	0.98	1.11	1.06	1.21	fold changes relative to vehicle control ([10]; HeLa, protein PSMC1): 0.95; fold changes relative to vehicle control ([11]; HeLa, captured protein EIF3I): 0.98; fold changes relative to vehicle control ([12]; protein C2ORF47, HeLa): 0.99
CCCCCCOc1ccc(Cc2cnc(N)nc2N)cc1 [compound 1]	1.21	0.99	0.92	1.08	1.02	1.23	1.13	1.05	0.98	0.96	1.1	1	1.03								fold changes relative to vehicle control [2, 15]: 1.53 fold
NCCCNc1ccc(C(=O)NC(CCC(=O)O)C(=O)O)cc1 (centres unmarked) [compound 7]					0.92		0.98					0.93	0.95	0.99	1.01	0.99	1.07	1.15	1.15	1.05	fold changes relative to vehicle control ([10]; HeLa, protein PSMC1): 0.85; fold changes relative to vehicle control ([11]; HeLa, captured protein EIF3I): 0.97; fold changes relative to vehicle control ([12]; protein C2ORF47, HeLa): 1.06
